This passage reports IC50 results from ChEMBL document CHEMBL1150016, “Quinuclidine based NK-1 antagonists 2: determination of the absolute stereochemical requirements” (Bioorg Med Chem Lett, 1993).

The term pIC50 denotes the negative decadic logarithm of the IC50, by convention in mol/L. A low value points to a large IC50.

pIC50: −log10 of the molar value.

In the experiment the target is Substance-P receptor (Homo sapiens, UniProt P25103). Kind of experiment: Tested for binding affinity by measuring displacement of [125I]SP from human NK-1 receptor in CHO Cells. (In general: Loss of bound radioactivity is the signal in a displacement assay; it reports binding, not function.)
Sequence of Substance-P receptor (P25103 whole entry): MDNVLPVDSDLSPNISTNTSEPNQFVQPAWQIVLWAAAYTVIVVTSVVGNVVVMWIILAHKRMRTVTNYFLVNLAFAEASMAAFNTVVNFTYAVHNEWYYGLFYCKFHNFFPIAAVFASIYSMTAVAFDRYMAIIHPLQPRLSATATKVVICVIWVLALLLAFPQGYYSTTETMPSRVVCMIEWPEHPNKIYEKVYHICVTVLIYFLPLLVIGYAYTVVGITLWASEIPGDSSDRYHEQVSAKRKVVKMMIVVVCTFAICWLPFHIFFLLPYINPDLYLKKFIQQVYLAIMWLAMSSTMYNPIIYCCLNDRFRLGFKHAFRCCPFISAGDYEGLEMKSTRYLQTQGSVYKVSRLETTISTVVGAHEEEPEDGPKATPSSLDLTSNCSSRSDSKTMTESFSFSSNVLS
Compound `FC(F)(F)c1cc(CO[C@@H]2C3CCN(CC3)[C@H]2C(c2ccccc2)c2ccccc2)cc(C(F)(F)F)c1` had a negative-log IC50 (pIC50) of 6.57.

Take `FC(F)(F)c1cc(CO[C@H]2C3CCN(CC3)[C@@H]2C(c2ccccc2)c2ccccc2)cc(C(F)(F)F)c1`: the pIC50 was 9.15.

As to `FC(F)(F)c1cc(CO[C@@H]2C3CCN(CC3)[C@@H]2C(c2ccccc2)c2ccccc2)cc(C(F)(F)F)c1`, the negative-log IC50 (pIC50) was 6.24.

Compound `FC(F)(F)c1cc(CO[C@H]2C3CCN(CC3)[C@H]2C(c2ccccc2)c2ccccc2)cc(C(F)(F)F)c1` [L-709210] had a pIC50 of 8.89.
